Results: patent US20230025003A1, “DIABETES THERAPY TARGETING ABNORMAL STEM CELLS” (Biozipcode, Inc., priority 2019, published 2023)

System: diabetic patients (type 1 and type 2 diabetes mellitus)
Test: Research Plan 2: therapy of diabetes mellitus targeting a bone marrow-derived abnormal hematopoietic stem cell
Format: in vivo, human
Conditions: type 1 and type 2 diabetic patients; 12 weeks therapy; predicted result

Substance: insulin alone: insulin therapy alone (control group of Research Plan 2)
- Effect of eliminating an abnormal hematopoietic stem cell: not eliminated
- Effect of healing diabetes mellitus: not observed
- Therapeutic effect on a complication: observed to some extent, but the complication does not heal
